In ChEMBL document CHEMBL1201862, “PubChem BioAssay data set” (2004):
Activity calls are given as the source filed them.

How the values were obtained:
[1] = tested on: Streptococcus sp. 'group A'; test: Streptococcus pyogenes SK(-)GAS viability under kanamycin – luminescence, BacTiterGlo, confirmation, counter-screen for streptokinase expression inhibitor project, dose response (AID 1900); assay type: functional, organism-based
[2] = A Cell Based Secondary Assay To Explore Cytotoxicity of Compounds that Sensitize Mycobacterium Tuberculosis to Beta-Lactam Antibiotics.; assay type: functional
[3] = tested on: Streptococcus; test: GAS UMAA2166 growth inhibition – luminescence, BacTiterGlo, counter-screen for streptokinase expression inhibitor project, dose response (AID 1915); assay type: functional, organism-based;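 note: potency for reduction of bacterial viability or growth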
[4] = HPDE-C7 pancreatic duct cell viability loss – fluorescence, HTS (AID 430); assay type: functional, cell-based; conditions: Homo sapiens
[5] = viability loss of HPDE-C7K cells – cell-based, fluorescence, HTS, primary screen (AID 431); assay type: functional; conditions: Homo sapiens
[6] = viability of PTEN-deleted HCT116 cells – cell-based, HCT116 PTEN knockout, dose response (AID 1047); assay type: functional;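 note: HCT116 colon tumor cells with PTEN knocked out; cells exposed to compound for 60 hours before readout; potency for loss of cell viability measured by luminescence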
[7] = viability of HCT116 lacking mutant beta-catenin – cell-based, human colon tumor, dose response (AID 1045); assay type: functional;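 note: HCT116 colon tumor cells with beta catenin knocked out; cells exposed to compound for 60 hours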
[8] = tested on: H9c2; test: cells; assay type: functional, cell-based; conditions: Rattus norvegicus, H9c2, Myocardium;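 note: confirmatory concentration-response retest of ultra-high-throughput screening hits for modulation of myocardial damage; cell death induced by hydrogen peroxide oxidative stress; compound pretreatment for 60 min then peroxide exposure for 2 h; potency is for protecting the cells against peroxide damage rather than for killing them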
[9] = target: Neuropeptide Y receptor type 1 (Homo sapiens, UniProt P25929); assay type: functional;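 note: HEK293 cells with a CNG channel challenged with NPY then isoproterenol; potency as antagonist that reverses NPY suppression of cAMP signal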
Neuropeptide Y receptor type 1, sequence (P25929 whole entry): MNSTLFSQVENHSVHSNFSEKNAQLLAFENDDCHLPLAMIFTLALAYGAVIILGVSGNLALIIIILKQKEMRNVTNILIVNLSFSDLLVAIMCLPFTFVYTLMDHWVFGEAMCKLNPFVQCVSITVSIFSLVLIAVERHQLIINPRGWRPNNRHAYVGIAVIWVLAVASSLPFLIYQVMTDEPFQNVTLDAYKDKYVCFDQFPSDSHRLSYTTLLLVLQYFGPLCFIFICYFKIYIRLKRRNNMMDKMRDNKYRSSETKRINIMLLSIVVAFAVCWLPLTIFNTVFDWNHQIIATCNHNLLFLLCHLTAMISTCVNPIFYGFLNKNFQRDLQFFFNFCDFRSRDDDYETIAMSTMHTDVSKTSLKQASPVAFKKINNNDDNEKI

[10] = target: Neuropeptide Y receptor type 2 (Homo sapiens, UniProt P49146); assay type: functional, cell-based;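 note: HEK293 cells expressing the receptor and a CNG channel; stimulus was NPY near EC95 followed by isoproterenol to raise cAMP; antagonist potency measured as restoring cAMP signal that NPY suppresses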
Neuropeptide Y receptor type 2, sequence (P49146 whole entry): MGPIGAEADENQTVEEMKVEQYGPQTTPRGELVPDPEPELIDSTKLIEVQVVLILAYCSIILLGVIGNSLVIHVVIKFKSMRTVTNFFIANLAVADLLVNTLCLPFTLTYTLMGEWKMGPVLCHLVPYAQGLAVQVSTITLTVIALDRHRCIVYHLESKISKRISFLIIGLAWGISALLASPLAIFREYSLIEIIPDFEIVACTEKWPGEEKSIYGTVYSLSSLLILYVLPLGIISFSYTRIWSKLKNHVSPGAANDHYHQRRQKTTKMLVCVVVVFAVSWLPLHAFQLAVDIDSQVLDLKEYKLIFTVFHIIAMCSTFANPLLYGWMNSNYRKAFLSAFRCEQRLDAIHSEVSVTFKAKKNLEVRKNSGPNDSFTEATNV

[11] = target: T1, Aryl hydrocarbon receptor (Homo sapiens, UniProt P35869); test: Luminescence-based cell-based high throughput dose response assay for activators of the Aryl Hydrocarbon Receptor (AHR). [Related pubchem assays: 2796 (Primary screen (AHR activators in singlicate)), 2845 (Confirmation screen (AHR activators in triplicate)), 434939 (Counterscreen (PXR activators in triplicate)), 2804 (Summary (AHR activators))]; assay type: ADME
T1 sequence (P35869 whole entry): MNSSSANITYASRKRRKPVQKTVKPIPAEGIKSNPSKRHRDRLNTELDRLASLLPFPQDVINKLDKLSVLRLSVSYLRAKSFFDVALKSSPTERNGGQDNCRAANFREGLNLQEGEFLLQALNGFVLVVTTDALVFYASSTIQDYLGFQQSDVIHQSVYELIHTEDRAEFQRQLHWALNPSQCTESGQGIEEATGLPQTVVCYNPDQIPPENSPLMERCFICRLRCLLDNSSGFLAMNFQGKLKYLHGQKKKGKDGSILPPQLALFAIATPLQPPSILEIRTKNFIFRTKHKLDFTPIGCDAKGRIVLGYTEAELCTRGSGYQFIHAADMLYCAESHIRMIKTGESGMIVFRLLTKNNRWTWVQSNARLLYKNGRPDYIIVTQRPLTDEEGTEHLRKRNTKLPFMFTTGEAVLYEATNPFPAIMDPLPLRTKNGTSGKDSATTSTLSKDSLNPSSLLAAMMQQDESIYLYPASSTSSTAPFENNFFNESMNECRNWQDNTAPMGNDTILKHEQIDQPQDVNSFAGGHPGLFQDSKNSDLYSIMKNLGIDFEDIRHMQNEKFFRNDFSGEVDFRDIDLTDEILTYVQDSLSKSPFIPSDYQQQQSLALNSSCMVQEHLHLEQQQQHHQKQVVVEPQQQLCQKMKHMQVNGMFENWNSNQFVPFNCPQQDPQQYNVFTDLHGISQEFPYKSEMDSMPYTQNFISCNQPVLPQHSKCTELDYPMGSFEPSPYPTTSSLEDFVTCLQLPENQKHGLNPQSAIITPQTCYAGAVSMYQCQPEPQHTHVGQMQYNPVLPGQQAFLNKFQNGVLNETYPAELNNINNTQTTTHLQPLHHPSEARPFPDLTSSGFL

[12] = target: Luciferin 4-monooxygenase (Photinus pyralis, UniProt P08659); test: Counter Screen for Luciferase-based Assay Positives. [Related pubchem assays: 620, 618, 411 ]
[13] = target: Protein-tyrosine kinase 2-beta (Homo sapiens, UniProt Q14289);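 note: potency of inhibitors of PYK2 kinase phosphorylation of poly-GT substrate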
Protein-tyrosine kinase 2-beta, sequence (Q14289 whole entry): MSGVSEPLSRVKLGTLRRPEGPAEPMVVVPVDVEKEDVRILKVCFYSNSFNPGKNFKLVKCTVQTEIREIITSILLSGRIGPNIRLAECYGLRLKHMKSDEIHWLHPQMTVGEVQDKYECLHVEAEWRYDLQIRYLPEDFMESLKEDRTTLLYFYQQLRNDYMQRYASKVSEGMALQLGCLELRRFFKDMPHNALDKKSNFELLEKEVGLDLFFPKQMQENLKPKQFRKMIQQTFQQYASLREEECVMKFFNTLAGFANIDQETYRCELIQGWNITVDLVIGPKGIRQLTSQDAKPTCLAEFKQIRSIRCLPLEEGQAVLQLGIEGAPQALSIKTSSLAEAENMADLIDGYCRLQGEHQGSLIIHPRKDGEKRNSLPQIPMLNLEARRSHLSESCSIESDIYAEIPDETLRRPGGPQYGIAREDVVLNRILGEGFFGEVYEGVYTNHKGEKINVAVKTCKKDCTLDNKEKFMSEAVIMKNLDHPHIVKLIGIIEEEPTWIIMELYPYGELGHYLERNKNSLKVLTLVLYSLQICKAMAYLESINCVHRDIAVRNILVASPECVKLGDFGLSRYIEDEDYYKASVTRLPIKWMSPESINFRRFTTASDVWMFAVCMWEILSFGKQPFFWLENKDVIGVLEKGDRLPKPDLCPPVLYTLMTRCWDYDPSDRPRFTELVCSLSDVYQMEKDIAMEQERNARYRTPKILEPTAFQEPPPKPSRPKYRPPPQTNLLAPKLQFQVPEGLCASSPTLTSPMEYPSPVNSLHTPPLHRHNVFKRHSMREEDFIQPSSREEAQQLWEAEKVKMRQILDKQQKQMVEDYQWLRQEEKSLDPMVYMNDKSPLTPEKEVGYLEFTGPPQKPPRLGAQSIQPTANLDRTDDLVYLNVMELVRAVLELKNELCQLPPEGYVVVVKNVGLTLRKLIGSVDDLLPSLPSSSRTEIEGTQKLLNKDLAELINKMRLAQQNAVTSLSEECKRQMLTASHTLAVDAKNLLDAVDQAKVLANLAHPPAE

[14] = tested on: HT-1080; test: HT1080 cell viability loss – fluorescence readout (AID 620); assay type: functional, cell-based; conditions: Homo sapiens
[15] = Luminescence-based cell-based high throughput dose response assay to identify activators of the DAF-12 from the parasite S. stercoralis (ssDAF-12).; assay type: functional
[16] = target: T2, Oxysterols receptor LXR-beta (Homo sapiens, UniProt P55055); test: LXR agonists, Gal4 luciferase reporter, dose response, counter-screen for ssDAF-12 agonist project, cell-based, luminescence, HEK293, S. stercoralis campaign (AID 720737); assay type: functional; conditions: read-out: IC50 (the source's name)
T2 sequence (P55055 whole entry): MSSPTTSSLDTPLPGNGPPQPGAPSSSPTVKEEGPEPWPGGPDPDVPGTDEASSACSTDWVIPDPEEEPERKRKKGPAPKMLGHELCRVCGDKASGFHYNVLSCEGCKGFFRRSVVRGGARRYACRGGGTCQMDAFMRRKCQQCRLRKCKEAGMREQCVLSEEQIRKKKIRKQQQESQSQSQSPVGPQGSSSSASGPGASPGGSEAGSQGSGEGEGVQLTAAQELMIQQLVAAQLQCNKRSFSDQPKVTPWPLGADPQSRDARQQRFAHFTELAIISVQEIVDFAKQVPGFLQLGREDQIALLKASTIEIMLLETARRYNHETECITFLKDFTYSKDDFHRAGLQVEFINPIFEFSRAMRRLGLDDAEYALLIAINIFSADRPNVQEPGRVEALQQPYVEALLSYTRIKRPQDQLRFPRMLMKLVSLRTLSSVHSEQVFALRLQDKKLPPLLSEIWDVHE

[17] = target: T3, Mannose-6-phosphate isomerase (Homo sapiens, UniProt P34949); test: MPI enzyme activity inhibition – biochemical, fluorescence intensity, coupled assay, primary screen (AID 1209)
T3 sequence (P34949 whole entry): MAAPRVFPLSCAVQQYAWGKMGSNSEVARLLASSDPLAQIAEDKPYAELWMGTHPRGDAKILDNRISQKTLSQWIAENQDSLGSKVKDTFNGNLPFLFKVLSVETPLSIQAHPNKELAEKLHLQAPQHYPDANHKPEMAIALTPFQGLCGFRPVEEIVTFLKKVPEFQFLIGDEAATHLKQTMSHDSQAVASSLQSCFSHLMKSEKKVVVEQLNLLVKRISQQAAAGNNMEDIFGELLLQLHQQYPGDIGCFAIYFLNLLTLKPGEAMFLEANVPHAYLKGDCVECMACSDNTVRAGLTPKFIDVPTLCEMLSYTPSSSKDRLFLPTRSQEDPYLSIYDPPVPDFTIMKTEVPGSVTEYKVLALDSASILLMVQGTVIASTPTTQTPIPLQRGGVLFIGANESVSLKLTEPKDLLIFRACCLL

[18] = target: Transitional endoplasmic reticulum ATPase (Homo sapiens, UniProt P55072, C522A); test: Luminescence counterscreen assay for p97 inhibitors: dose response biochemical high throughput screening assay to identify inhibitors of the C522A mutant p97 ATPase: synthesized compounds. [Related pubchem assays: 1481, 1517, 1551 ]
Transitional endoplasmic reticulum ATPase (Homo sapiens, UniProt P55072, C522A), sequence (P55072 2-806 C522A limits assumed): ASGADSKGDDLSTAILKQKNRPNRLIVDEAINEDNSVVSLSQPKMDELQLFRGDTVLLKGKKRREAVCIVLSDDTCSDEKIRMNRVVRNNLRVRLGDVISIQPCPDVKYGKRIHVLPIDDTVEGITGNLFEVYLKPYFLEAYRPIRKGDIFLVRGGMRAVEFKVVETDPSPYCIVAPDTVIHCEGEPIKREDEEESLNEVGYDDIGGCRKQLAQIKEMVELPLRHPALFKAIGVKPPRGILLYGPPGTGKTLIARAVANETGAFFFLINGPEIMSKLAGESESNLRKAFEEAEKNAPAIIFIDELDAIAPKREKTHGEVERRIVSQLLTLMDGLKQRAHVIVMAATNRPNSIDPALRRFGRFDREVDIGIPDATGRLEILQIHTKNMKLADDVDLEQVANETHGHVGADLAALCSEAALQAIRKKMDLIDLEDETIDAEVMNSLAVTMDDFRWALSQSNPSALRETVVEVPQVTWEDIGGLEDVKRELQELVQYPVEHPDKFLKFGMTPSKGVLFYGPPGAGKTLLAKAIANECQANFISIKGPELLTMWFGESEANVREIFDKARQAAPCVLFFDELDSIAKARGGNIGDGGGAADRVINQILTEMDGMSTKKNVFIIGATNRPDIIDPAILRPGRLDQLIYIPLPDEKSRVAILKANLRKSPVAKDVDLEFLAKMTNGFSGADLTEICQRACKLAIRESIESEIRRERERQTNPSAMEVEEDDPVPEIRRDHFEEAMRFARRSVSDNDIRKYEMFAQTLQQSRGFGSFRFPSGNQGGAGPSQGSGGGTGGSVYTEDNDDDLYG

[19] = target: Transitional endoplasmic reticulum ATPase (Homo sapiens, UniProt P55072); test: Luminescence dose response biochemical high throughput screening assay for inhibitors of the p97 ATPase: synthesized compounds. [Related pubchem assays: 1481, 1517 ]
Transitional endoplasmic reticulum ATPase (Homo sapiens, UniProt P55072), sequence (P55072 whole entry): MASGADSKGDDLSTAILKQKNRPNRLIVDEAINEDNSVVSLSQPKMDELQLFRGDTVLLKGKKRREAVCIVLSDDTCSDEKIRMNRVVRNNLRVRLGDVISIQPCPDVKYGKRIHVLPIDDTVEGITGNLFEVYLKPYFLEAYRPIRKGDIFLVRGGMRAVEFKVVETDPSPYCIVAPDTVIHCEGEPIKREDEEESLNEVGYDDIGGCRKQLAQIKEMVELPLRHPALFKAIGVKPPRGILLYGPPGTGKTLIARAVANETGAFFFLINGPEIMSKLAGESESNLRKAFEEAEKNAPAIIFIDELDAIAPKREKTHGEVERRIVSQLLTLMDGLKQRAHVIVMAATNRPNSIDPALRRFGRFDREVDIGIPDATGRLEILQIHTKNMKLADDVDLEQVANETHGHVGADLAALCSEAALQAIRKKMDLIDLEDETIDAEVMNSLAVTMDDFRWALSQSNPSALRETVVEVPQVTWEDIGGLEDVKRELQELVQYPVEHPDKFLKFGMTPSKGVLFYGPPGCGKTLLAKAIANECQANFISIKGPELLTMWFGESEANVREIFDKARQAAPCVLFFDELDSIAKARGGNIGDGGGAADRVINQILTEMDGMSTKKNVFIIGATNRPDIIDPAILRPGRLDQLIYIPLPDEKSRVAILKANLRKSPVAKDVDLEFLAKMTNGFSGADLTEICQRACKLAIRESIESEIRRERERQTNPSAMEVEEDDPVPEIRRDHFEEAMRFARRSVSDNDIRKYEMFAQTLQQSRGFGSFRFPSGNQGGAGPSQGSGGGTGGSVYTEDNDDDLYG

[20] = target: Lysosomal acid glucosylceramidase (Homo sapiens, UniProt P04062); test: Dose response cell-based high throughput screening assay to identify enhancers of beta-glucosidase activity. [Related pubchem assays: 784 ]; assay type: functional
Lysosomal acid glucosylceramidase, sequence (P04062 whole entry): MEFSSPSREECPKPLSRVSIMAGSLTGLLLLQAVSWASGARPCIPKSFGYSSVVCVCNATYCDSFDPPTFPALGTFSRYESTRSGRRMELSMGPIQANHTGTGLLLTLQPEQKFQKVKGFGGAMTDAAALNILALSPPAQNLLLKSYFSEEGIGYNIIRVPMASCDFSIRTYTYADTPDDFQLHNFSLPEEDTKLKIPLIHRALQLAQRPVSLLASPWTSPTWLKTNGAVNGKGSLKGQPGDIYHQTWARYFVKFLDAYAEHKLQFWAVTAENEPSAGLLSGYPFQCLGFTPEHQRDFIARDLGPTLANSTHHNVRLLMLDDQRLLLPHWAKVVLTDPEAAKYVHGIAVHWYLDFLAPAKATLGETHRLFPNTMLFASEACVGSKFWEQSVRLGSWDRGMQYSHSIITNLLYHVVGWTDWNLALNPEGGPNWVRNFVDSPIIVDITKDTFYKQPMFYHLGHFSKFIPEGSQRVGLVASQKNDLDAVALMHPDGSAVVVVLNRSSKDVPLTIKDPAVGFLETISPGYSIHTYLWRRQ

[21] = target: Glyceraldehyde-3-phosphate dehydrogenase (Homo sapiens, UniProt P04406)
[22] = target: Mucolipin-3 (Homo sapiens, UniProt Q8TDD5); test: Dose response cell-based high-throughput screening assay for agonists of the transient receptor potential channel ML3 (TRPML3). [Related pubchem assays: 1526, 1424, 1448 ]; assay type: functional
[23] = target: Ion channel NompC (Danio rerio, UniProt Q7T1G6); test: Fluorescence counterscreen assay for TRPML3 agonists: dose response cell-based high-throughput screening assay to identify agonists of the transient receptor potential channel N1 (TRPN1). [Related pubchem assays: 1526, 1424, 1448 ]; assay type: functional
[24] = target: T4, Neuropeptides B/W receptor type 1 (Homo sapiens, UniProt P48145); test: Fluorescence-based dose response cell-based high throughput screening assay to identify antagonists of the G-protein coupled receptor 7 (GPR7). [Related pubchem assays: 1952 (Screening assay (GPR7 antagonists).), 1880 (Summary AID.)]; assay type: functional
T4 sequence (P48145 whole entry): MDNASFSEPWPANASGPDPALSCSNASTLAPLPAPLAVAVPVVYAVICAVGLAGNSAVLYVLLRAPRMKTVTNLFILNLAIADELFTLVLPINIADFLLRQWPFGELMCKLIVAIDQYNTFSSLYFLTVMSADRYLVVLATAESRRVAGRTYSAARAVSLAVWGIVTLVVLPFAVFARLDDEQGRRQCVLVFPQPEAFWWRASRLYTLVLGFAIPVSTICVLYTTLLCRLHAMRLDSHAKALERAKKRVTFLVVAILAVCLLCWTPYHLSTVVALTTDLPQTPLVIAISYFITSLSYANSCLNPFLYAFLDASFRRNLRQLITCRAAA

[25] = target: Melanin-concentrating hormone receptor 1 (Homo sapiens, UniProt Q99705); test: Fluorescence-based counterscreen for antagonists of the G-protein coupled receptor 7 (GPR7): cell-based high throughput dose response assay to identify antagonists of the melanin-concentrating hormone receptor 1 (MCHR1).; assay type: functional
Melanin-concentrating hormone receptor 1, sequence (Q99705 whole entry): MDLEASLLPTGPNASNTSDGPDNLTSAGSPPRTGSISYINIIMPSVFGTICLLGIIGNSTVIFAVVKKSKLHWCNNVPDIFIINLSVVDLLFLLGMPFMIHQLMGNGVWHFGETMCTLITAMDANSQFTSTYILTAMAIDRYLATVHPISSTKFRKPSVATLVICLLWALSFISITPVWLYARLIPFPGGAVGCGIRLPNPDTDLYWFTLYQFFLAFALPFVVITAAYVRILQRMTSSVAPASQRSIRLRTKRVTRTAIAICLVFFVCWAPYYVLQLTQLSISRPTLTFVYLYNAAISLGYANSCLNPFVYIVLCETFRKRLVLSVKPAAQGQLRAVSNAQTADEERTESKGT

[26] = target: T5, Bcl-2-like protein 10 (Homo sapiens, UniProt Q9HD36); test: Bcl-B/TR3 peptide binding disruption – biochemical, fluorescence polarization, FITC-TR3 peptide, selectivity assay for Bfl-1 inhibitor project, primary screen (AID 748);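 note: fluorescence polarization from a fluorescein-labelled TR3 peptide binding purified Bcl-B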
T5 sequence (Q9HD36 whole entry): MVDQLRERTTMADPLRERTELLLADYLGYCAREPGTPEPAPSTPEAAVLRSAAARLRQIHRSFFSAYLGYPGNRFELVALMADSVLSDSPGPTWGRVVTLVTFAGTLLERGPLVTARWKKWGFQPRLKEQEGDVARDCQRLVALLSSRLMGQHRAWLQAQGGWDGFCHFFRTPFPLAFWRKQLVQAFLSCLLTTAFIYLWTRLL

[27] = target: T6, Estrogen receptor beta (Homo sapiens, UniProt Q92731);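 note: recombinant ER-beta bound to coactivator SRC1 peptide in presence of estradiol agonist; inhibitors block coactivator peptide binding and lower the FRET signal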
T6 sequence (Q92731 whole entry): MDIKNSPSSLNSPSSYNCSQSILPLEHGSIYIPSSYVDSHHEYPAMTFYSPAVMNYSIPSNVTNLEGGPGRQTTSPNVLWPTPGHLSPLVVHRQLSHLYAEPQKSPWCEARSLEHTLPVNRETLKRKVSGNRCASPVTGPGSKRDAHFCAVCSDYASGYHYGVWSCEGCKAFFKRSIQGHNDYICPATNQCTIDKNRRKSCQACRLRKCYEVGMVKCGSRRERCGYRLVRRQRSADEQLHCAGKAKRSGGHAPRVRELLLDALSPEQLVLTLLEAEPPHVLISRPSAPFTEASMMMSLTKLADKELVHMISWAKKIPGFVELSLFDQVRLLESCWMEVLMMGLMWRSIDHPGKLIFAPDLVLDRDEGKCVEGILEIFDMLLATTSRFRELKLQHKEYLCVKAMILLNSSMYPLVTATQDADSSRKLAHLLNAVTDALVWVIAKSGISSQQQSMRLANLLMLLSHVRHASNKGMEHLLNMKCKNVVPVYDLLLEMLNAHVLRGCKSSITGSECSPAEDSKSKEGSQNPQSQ

[28] = target: T6, Estrogen receptor beta; test: blockers of SRC-3 recruitment to ERβ – biochemical, ELISA, streptavidin-HRP readout, orthogonal assay, confirmation (AID 1060)
[29] = target: T7, Carboxy-terminal domain RNA polymerase II polypeptide A small phosphatase 1 (Homo sapiens, UniProt Q9GZU7); test: CTDSP1 inhibitors, concentration-response, biochemical, absorbance readout, ultra-high-throughput screen actives (AID 540297); assay type: functional
T7 sequence (Q9GZU7 whole entry): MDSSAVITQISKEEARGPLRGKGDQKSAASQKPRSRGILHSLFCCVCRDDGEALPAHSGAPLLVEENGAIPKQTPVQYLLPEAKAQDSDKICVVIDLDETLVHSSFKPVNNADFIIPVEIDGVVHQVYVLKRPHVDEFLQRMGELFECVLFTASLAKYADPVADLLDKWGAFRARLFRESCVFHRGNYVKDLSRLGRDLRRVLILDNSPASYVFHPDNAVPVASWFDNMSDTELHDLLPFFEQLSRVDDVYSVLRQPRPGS

[30] = target: Peroxisome proliferator-activated receptor gamma/Nuclear receptor coactivator 2 (Homo sapiens, UniProt P37231); assay type: functional;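 note: agonist potency for raising coactivator recruitment to the receptor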
[31] = target: Peroxisome proliferator-activated receptor gamma/Nuclear receptor coactivator 1 (Homo sapiens, UniProt P37231); assay type: functional;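 note: agonist potency as compounds enhance coactivator SRC-1 recruitment to PPARgamma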
[32] = target: Peroxisome proliferator-activated receptor gamma/Nuclear receptor coactivator 3 (Homo sapiens, UniProt P37231); assay type: functional;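 note: agonist potency for raising coactivator recruitment to the receptor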

COc1ccc(C(=O)/C=C/c2ccc(O)cc2)c(O)c1CC=C(C)C
EC50 [1]: 2.71 µM (active) | CC50 [2]: > 40 µM (active) | EC50 [3]: 3.01 µM (active)

CCOC(=O)C1=C(C)N=c2s/c(=C\c3ccncc3)c(=O)n2C1c1ccc2c(c1)OCO2 (stereo unspecified)
CC50 [2]: > 40 µM (active) | EC50 [4]: 16.3 µM (active) | EC50 [5]: 11 µM (active) | EC50 [6]: 10.5 µM (active) | EC50 [7]: 10.2 µM (active) | IC50 [8]: > 79 µM (inactive)

CN(C)Cc1ccccc1Sc1cccc2ccccc12
IC50 [9]: 6.03 µM (active) | IC50 [10]: 9.22 µM (active)

CCOC(=O)c1oc2ccccc2c1N
EC50 [11]: 7.43 µM (active)

O=C1c2ccccc2C(=O)C1c1ccnc2ccccc12
EC50 [12]: 3.42 µM (active) | IC50 [13]: 4.75 µM (active) | EC50 [14]: > 50 µM (not active) | IC50 [15]: > 67.5 µM (inactive) | EC50 [16]: > 67.5 µM (inactive)

Cc1ccc([N+](=O)[O-])c(C)[n+]1C
IC50 [17]: > 50 µM (not active)

Cc1cc(-c2csc(Nc3ccc(C#N)cc3)n2)c(C)n1Cc1ccccc1
IC50 [18]: > 50 µM (not active) | IC50 [19]: > 50 µM (not active)

CCOC(=O)NC(CC(=O)O)c1ccc(OCC)cc1 (stereo unspecified)
EC50 [20]: > 50 µM (not active)

COC(=O)c1ccc(CSc2nc3sc4c(c3c(=O)n2C)CCCC4)o1
IC50 [9]: 6.95 µM (active) | IC50 [10]: 6.21 µM (active)

C[C@@H]1CN(C2=C(Cl)C(=O)N(c3ccc(C(F)(F)F)cc3)C2=O)CCN1
IC50 [21]: > 50 µM (inconclusive)

COc1cccc(CN(Cc2ccco2)C(c2ccc(F)cc2)c2nnnn2C(C)(C)C)c1 (stereo unspecified)
EC50 [22]: > 29.9 µM (not active) | EC50 [23]: > 29.9 µM (not active)

N#Cc1ccc(CSc2nnc(Cc3cccs3)n2Cc2ccco2)cc1
IC50 [24]: > 43.8 µM (not active) | IC50 [25]: 23 µM (not active)

CCOC(=O)/C(C#N)=C/c1sc2ccccc2c1-c1ccccc1
IC50 [18]: > 50 µM (not active) | IC50 [19]: > 50 µM (not active)

COc1ccc2c(c1)c(=O)oc1cc(OCC(=O)N3CCc4ccccc4C3)ccc12
IC50 [26]: 29.8 µM (active) | IC50 [27]: > 50 µM (not active) | IC50 [28]: 5.58 µM (active) | IC50 [29]: 2.9 µM (active)

CCOc1ccccc1CNS(=O)(=O)c1ccc2nc(O)sc2c1
EC50 [20]: > 10 µM (not active)

O=C1c2cccc(OCC(=O)N3CCCc4ccccc43)c2CCN1Cc1ccccc1
EC50 [30]: > 79.4 µM (not active) | EC50 [31]: > 79.4 µM (not active) | EC50 [32]: > 79.4 µM (not active)

NS(=O)(=O)c1ccc2nc(NC(=O)Nc3ccc(F)cc3)sc2c1
IC50 [24]: > 43.8 µM (not active) | IC50 [25]: > 43.8 µM (not active)

Cc1ccc2cc3c(NC(=O)CC(C)C)nn(C)c3nc2c1
EC50 [11]: 0.476 µM (active)
